# Assay results published in patent US20090142285A1, “COSMETIC COMPOSITION COMPRISING ASCORBIC ACID 2-GLUCOSIDE AND ERGOTHIONEINE” (LVMH RECHERCHE, priority 2007, published 2009).
# What was measured:
# [1] = tested on: glycosylase type DNA repair enzymes; experiment: OLISA biochip: excision of modified DNA bases by nuclear extracts of treated fibroblasts, donor (FHN52); format: cell-based, human; details: for digestion activity (elimination of modified DNA bases formed as a result of oxidative stress): overall conclusion
# Procedure: (§1) Fibroblasts were obtained from a breast sample from a person and from photo-protected skin of a person.
# (§2) Fibroblasts from each of the donors, […] (FHN52) and […] (FHN 1C), were cultured and treated in the exponential growth phase.
# (§3) Fibroblasts were treated with ergothioneine (AGI Dermatics, Newport, N.Y., USA) at a non-cytotoxic concentration of 4 mM for 24 hours.
# (§4) Treatment of fibroblasts with ascorbic acid 2-glucoside (Siber Hegner, Miribel, France) was carried out at a non-cytotoxic concentration of 50 μM of […] for 24 hours.
# (§5) Nuclear extracts were prepared in order to obtain protein solutions containing the repair enzymes of interest.
# (§6) Extracts were used at a final concentration of 10 μg/ml.
# (§7) OLISA technology (Bonnet-Duquennoy et al., Eur. J. Dermatol., 16, 2, 136-140 2006) was used to measure the excision of nucleic bases modified by glycosylase type DNA repair enzymes.
# (§8) The principle (FIG. 1) is described in the publication entitled: “An oligonucleotide micro-array for the monitoring of repair enzyme activity toward different DNA damage”, Sauvaigo et al., Annal. Biochem. (2004); 333: 182-192.
# (§9) Labelled oligonucleotide probes immobilised on the support generate synthetic double strand DNA containing in their base sequence, the altered base whose repair activity by cellular enzymes is being studied.
# (§10) The probes were determined in order to study enzyme repair typical lesions resulting from exposure to oxidative stress (FIG. 2).
# (§11) An OLISA format chip (96-well plate; bioMérieux, Grenoble, France) with 17 spots was functionalised by oligonucleotides containing the various lesions of interest (LAN synthesis, CEA, Grenoble, France).
# (§12) Functionalised wells were incubated at 30° C. in the presence of the extract of interest.
# (§13) The duration of digestion chosen is 45 minutes for the experiments. Extracts were deposited in four wells.
# (§14) Thus for each lesion, the percentage of lesions remaining after the extract activity is determined by calculating the ratio of “extract” well signals with respect to control wells which represent 100% lesions (calculation carried out using the mean of the 8 values obtained).
# (§15) Similarly, to determine the effect of each of the 2 active ingredients on specific digestion of extracts, data obtained for each of the lesions were normalised by data obtained with the control oligonucleotide normalised by the control.
# keratinocytes = details: cited from earlier work
# [2] = tested on: mouse skin cells placed in culture; details: cited from earlier work
# [3] = tested on: glycosylase type DNA repair enzymes; experiment: OLISA biochip: excision of modified DNA bases by nuclear extracts of treated fibroblasts, donor (FHN 1C); format: cell-based, human
# Procedure: as §1, §2, §3, §4, §5, §6, §7, §8, §9, §10, §11, §12, §13, §14, §15
# [4] = tested on: non-specific digestive activity (nuclease) of cell extracts; experiment: OLISA biochip: non-specific digestion of control oligonucleotide (no lesion) by extracts of treated fibroblasts; format: cell-based, human; details: immediately after treatment, 2 donors
# Procedure: as §2, §3, §4, §5, §7
# For this study, 2 spots per lesion of interest or control oligonucleotide (without lesion) and 3 spots used to direct the readings were used.
# as §12, §13
# In order to determine the effect of ergothioneine, on the one hand, and of ascorbic acid 2-glucoside, on the other, on non-specific digestion of extracts, data obtained with the control oligonucleotide normalised by the control were used.
# In the same way, an analysis was carried out for each of the 2 donors tested. […]
# Fibroblasts = experiment: Cytotoxicity of the treatment concentration on fibroblasts; format: cell-based, human; details: 4 mM for 24 hours
# Procedure: as §3, §4
# human cell lines = details: cited from earlier work
# [5] = ascorbic acid 2-glucoside 50 μM, 24 hours after treatment, donor (FHN 52)
# [6] = ascorbic acid 2-glucoside 50 μM, 24 hours after treatment
# [7] = ergothioneine 4 mM 24 hours, rinsed, recultured without ergothioneine a further 24 hours, donor (FHN 52)
# [8] = ergothioneine 4 mM 24 hours, donor (FHN 52), immediately after treatment
# [9] = ergothioneine 4 mM 24 hours, immediately after treatment
smiles,measurement,setting,value
"O=C1O[C@H]([C@@H](O)CO)C(O)=C1O[C@H]1O[C@H](CO)[C@@H](O)[C@H](O)[C@H]1O [ascorbic acid 2-glucoside, 2-O-α-D-Glucopyranosyl L-ascorbic acid]",residual percentage of 8-oxo-dG lesion,[1]; [5],decreases significantly
same,residual percentage of formylamine lesion,[1]; [5],decreases significantly
same,residual percentage of inosine lesion,[1]; [5],decreases significantly
same,residual percentage of uracil lesion,[1]; [5],decreases significantly
same,digestion activity (elimination of modified DNA bases formed as a result of oxidative stress),"[1]; ascorbic acid 2-glucoside 50 μM, fibroblast extracts of donor",significantly increases
same,protection against cytotoxicity caused by UVB,keratinocytes,effective agent in protecting keratinocytes
same,cell DNA fragmentation after damage caused by UVA or UVB,[2],reduction in the cell DNA fragmentation
same,residual percentage of 8 oxodG lesion,[3]; [6],decreases significantly
same,residual percentage of formylamine lesion,[3]; [6],decreases significantly
same,residual percentage of inosine lesion,[3]; [6],decreases significantly
same,residual percentage of uracil lesion,[3]; [6],decreases significantly
same,effect on the control oligonucleotide (non-specific digestion),[4]; ascorbic acid 2-glucoside 50 μM for 24 hours,did not have a significant effect
C[N+](C)(C)[C@@H](Cc1c[nH]c(=S)[nH]1)C(=O)[O-] [ergothioneine],residual percentage of 8-oxo-dG lesion,[1]; [7],decreases significantly
same,residual percentage of HmdU lesion,[1]; [7],decreases significantly
same,residual percentage of ethenoda lesion,[1]; [7],decreases significantly
same,residual percentage of formylamine lesion,[1]; [7],decreases significantly
same,residual percentage of inosine lesion,[1]; [7],decreases significantly
same,residual percentage of formylamine lesion,[1]; [8],decreases significantly
same,residual percentage of inosine lesion,[1]; [8],decreases significantly
same,residual percentage of uracil lesion,[1]; [8],decreases significantly
same,residual percentage of 8 oxodG lesion,"[1]; ergothioneine 4 mM 24 hours, donor (FHN 52), immediately after treatment, normalised to control oligonucleotide",decreases significantly
same,digestion activity (elimination of modified DNA bases formed as a result of oxidative stress),"[1]; ergothioneine 4 mM, fibroblast extracts",significantly increases
same,cytotoxicity at treatment concentration,Fibroblasts,non-cytotoxic
same,residual percentage of formylamine lesion,[3]; [9],decreases significantly
same,residual percentage of uracil lesion,[3]; [9],decreases significantly
same,effect on the control oligonucleotide (non-specific digestion),[4]; ergothioneine 4 mM for 24 hours,no significant effect
same,DNA oxidation caused by peroxinitrites,human cell lines,inhibits
same,cell death triggered by hydrogen peroxide,human cell lines,inhibits
